One assay addresses T1, human MR (Homo sapiens, UniProt P08235).
T1 construct: The full length human MR gene is cloned from a human kidney or human brain cDNA library; His tag from the pAcHLT vector (own knowledge); made in house; host or cells: Sf9 insect cells (baculovirus, pAcHLT transfer vector)
T1 sequence (P08235 1-984): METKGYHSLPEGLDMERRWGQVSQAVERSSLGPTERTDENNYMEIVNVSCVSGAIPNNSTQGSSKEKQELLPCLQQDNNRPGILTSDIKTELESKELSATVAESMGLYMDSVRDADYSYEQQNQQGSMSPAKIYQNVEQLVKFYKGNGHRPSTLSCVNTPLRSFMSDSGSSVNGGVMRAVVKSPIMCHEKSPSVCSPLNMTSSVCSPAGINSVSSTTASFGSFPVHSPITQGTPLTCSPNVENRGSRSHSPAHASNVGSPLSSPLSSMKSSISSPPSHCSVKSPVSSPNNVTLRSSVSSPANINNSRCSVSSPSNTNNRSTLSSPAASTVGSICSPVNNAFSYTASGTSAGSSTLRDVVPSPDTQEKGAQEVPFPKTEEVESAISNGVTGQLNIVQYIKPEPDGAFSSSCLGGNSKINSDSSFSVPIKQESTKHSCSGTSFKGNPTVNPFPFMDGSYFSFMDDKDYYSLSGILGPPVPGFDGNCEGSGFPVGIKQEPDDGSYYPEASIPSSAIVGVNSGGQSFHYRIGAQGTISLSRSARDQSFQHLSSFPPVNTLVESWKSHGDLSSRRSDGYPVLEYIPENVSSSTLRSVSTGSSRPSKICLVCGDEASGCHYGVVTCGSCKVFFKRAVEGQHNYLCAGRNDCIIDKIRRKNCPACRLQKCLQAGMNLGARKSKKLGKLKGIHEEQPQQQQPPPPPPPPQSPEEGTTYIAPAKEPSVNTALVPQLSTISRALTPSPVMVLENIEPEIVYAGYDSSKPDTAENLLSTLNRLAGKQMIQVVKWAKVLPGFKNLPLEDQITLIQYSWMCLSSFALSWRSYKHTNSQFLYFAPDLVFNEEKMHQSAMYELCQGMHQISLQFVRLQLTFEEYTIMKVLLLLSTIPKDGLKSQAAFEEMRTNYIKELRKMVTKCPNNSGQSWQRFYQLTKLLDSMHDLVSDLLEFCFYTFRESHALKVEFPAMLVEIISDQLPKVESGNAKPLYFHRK
The experiment in a line: Mineralocorticoid Receptor Binding Assay ([3H]-aldosterone). The note with it: [3H]-aldosterone binding, human MR expressed in Sf9 cells; read-out: MR Ki. In outline:
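Lysate supernatant of Sf9 cells expressing full-length human MR (20-25 μg protein) was incubated with 0.5 nM [3H]-aldosterone and test compound in molybdate/Tris/phosphate/glycerol buffer, pH 7.5, ~16 h at 4 °C. Bound ligand was filtered and counted by scintillation; IC50 is the concentration halving [3H]-aldosterone binding.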

The target in a further assay is T2, glucocorticoid receptor (Homo sapiens, UniProt P04150).
T2 construct: containing 50-200 ug of A549 cell extract and 1.86 nM [^3H]-dexamethasone; host or cells: A549 human lung epithelial cells (sonicated cell extract)
T2 sequence (P04150 1-777): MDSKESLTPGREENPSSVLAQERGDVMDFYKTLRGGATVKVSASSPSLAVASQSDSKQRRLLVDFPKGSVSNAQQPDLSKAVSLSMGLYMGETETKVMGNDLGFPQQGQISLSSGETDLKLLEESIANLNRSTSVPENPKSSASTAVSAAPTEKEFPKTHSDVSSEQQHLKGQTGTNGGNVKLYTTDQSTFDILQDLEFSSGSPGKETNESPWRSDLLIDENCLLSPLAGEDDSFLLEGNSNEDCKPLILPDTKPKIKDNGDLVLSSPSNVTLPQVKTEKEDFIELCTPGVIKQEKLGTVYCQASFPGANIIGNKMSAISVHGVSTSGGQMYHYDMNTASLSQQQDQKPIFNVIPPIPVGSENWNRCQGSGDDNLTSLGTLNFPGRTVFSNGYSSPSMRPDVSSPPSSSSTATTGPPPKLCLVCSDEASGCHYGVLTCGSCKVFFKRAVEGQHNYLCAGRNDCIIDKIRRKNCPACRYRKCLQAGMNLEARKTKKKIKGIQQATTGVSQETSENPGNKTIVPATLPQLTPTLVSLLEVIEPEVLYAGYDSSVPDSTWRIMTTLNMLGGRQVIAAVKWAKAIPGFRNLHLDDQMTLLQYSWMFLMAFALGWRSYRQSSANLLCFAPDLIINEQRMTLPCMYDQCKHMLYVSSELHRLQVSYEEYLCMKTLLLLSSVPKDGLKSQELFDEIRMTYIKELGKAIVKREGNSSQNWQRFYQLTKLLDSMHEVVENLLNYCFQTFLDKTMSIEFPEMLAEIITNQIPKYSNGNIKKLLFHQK
The experiment in a line: Glucocorticoid Receptor Binding Assay ([3H]-dexamethasone, A549 cell extract). The note with it: [3H]-dexamethasone binding, read-out: GR Ki. In outline:
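A549 cell extract (50–200 ug) incubated with 1.86 nM [3H]-dexamethasone and test compound for 16 h at 4 °C in Tris-HCl pH 7.2 buffer with glycerol and molybdate. Unbound radioligand removed by dextran-coated charcoal, then supernatant bound counts measured by scintillation.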

pKi: −log10 of the molar value.

One may read the pKi as −log10 of the Ki, conventionally taken in molar units. Take `CC(=O)Nc1nc(C)c(S(=O)(=O)Nc2cccc(C=C3c4ccccc4CCc4cc(Cl)ccc43)c2)s1` [Example 297]: the pKi on human MR is more than 6.30; on glucocorticoid receptor it was more than 5.00.

For `O=C(CO)c1cccc(C=C2c3ccccc3CCc3cc(Cl)ccc32)c1` [Example 298], the results for the pKi on human MR and at glucocorticoid receptor were more than 6.30 and more than 5.00, respectively.

Turning to `COCC(=O)Nc1cccc(C=C2c3ccccc3CCc3cc(Cl)ccc32)c1` [Example 299], the negative-log Ki (pKi) at human MR was more than 6.30; on glucocorticoid receptor, more than 6.00.

For `O=C(CO)Nc1cccc(C=C2c3ccccc3CCc3cc(Cl)ccc32)c1` [Example 300], the values for the pKi at human MR and at glucocorticoid receptor were more than 6.30 and more than 6.00, respectively.

For the compound `Cc1ccc2c(c1)C(=Cc1cccc(NS(C)(=O)=O)c1)c1ccccc1CC2` [Example 301], the pKi at human MR and on glucocorticoid receptor was more than 6.30 each time.

Regarding `Cc1ccc2c(c1)CCc1ccccc1C2=Cc1cccc(NS(C)(=O)=O)c1` [Example 302], the pKi at human MR and at glucocorticoid receptor was more than 6.30 each time.

With `Cc1cccc2c1CCc1ccccc1C2=Cc1cccc(NS(C)(=O)=O)c1` [Example 303], the pKi on human MR and at glucocorticoid receptor was more than 6.30 throughout.

With `Cc1cccc2c1C(=Cc1cccc(NS(C)(=O)=O)c1)c1ccccc1CC2` [Example 304], the pKi at human MR and at glucocorticoid receptor was more than 6.30 throughout.

Take `Cc1ccc2c(c1)C(=Cc1ccc(NS(C)(=O)=O)cc1)c1ccccc1CC2` [Example 305]: the negative logarithm of the Ki (pKi) at human MR was more than 6.30; at glucocorticoid receptor, more than 6.00.

In the case of `CS(=O)(=O)Nc1cccc(/C=C2/c3ccccc3CCc3cc(-c4ccccc4)ccc32)c1` [Example 306], the pKi on human MR is more than 6.30; on glucocorticoid receptor it was more than 6.00.

Consider `Cc1cccc2c1CCc1ccccc1C2=Cc1ccc(NS(C)(=O)=O)cc1` [Example 307], for which the pKi was more than 6.30 at human MR and more than 6.00 on glucocorticoid receptor.

For the compound `CS(=O)(=O)Nc1cccc(/C=C2\c3ccccc3CCc3cc(-c4ccccc4)ccc32)c1` [Example 308], the pKi was more than 6.30 on human MR and more than 5.00 on glucocorticoid receptor.

As to `Cc1ccc2c(c1)CCc1ccccc1C2=Cc1ccc(NS(C)(=O)=O)cc1` [Example 309], the pKi on human MR was more than 6.30; at glucocorticoid receptor it was more than 6.00.

As to `Cc1cccc2c1C(=Cc1ccc(NS(C)(=O)=O)cc1)c1ccccc1CC2` [Example 310], the negative-log Ki (pKi) is more than 6.30 on human MR and more than 6.00 at glucocorticoid receptor.

As for `Cc1cccc2c1CCc1ccccc1/C2=C/c1cccc(NS(C)(=O)=O)c1` [Example 311], the pKi on human MR and at glucocorticoid receptor was more than 6.30 in each case.

In the case of `Cc1cccc2c1CCc1ccccc1/C2=C\c1cccc(NS(C)(=O)=O)c1` [Example 312], the pKi on human MR and on glucocorticoid receptor was more than 6.30 in each case.

Turning to `Cc1cccc2c1/C(=C\c1cccc(NS(C)(=O)=O)c1)c1ccccc1CC2` [Example 314], the pKi on human MR and on glucocorticoid receptor was more than 6.30 each time.

`Cc1cccc2c1CCc1ccccc1/C2=C/c1ccc(NS(C)(=O)=O)cc1` [Example 315]: the pKi was more than 6.30 at human MR and more than 5.00 at glucocorticoid receptor.

In the case of `Cc1cccc2c1CCc1ccccc1/C2=C\c1ccc(NS(C)(=O)=O)cc1` [Example 316], the pKi at human MR and on glucocorticoid receptor was more than 6.30 in each case.

On to `Cc1ccc2c(c1)CCc1ccccc1/C2=C/c1ccc(NS(C)(=O)=O)cc1` [Example 317], for which the negative logarithm of the Ki (pKi) is more than 6.30 on human MR and more than 5.00 at glucocorticoid receptor.

In the case of `Cc1ccc2c(c1)CCc1ccccc1/C2=C\c1ccc(NS(C)(=O)=O)cc1` [Example 318], the pKi was more than 6.30 on human MR and more than 6.00 on glucocorticoid receptor.

As to `CSc1cccc2c1CCc1ccccc1C2=Cc1cccc(NS(C)(=O)=O)c1` [Example 319], the pKi at human MR and at glucocorticoid receptor was more than 6.30 each time.

Regarding `CSc1ccc2c(c1)C(=Cc1cccc(NS(C)(=O)=O)c1)c1ccccc1CC2` [Example 320], the pKi at human MR and at glucocorticoid receptor was more than 6.30 throughout.

On to `CS(=O)(=O)Nc1cccc(C=C2c3ccccc3CCc3ccc(S(C)(=O)=O)cc32)c1` [Example 321], for which the pKi on human MR and at glucocorticoid receptor was more than 6.30 throughout.

With `CSc1ccc2c(c1)/C(=C\c1cccc(NS(C)(=O)=O)c1)c1ccccc1CC2` [Example 322], the pKi on human MR and at glucocorticoid receptor was more than 6.30 each time.

Turning to `CS(=O)(=O)Nc1cccc(/C=C2/c3ccccc3CCc3ccc(S(C)(=O)=O)cc32)c1` [Example 323], the pKi on human MR and on glucocorticoid receptor was more than 6.30 throughout.

Take `Cc1ccc2c(c1)CCc1cc(C)ccc1C2=Cc1cccc(NS(C)(=O)=O)c1` [Example 325]: the pKi at human MR and on glucocorticoid receptor was more than 6.30 in each case.

With `Cc1ccc2c(c1)CCc1ccccc1/C2=C/c1cccc(NS(C)(=O)=O)c1` [Example 326], the pKi at human MR and at glucocorticoid receptor was more than 6.30 in each case.

For `Cc1ccc2c(c1)CCc1ccccc1/C2=C\c1cccc(NS(C)(=O)=O)c1` [Example 327], the pKi on human MR and on glucocorticoid receptor was more than 6.30 throughout.

For the compound `CS(=O)(=O)Nc1cccc(C=C2c3ccccc3CCc3cc(OCCc4ccccc4)ccc32)c1` [Example 330], the pKi at human MR and at glucocorticoid receptor was more than 6.30 throughout.

Take `COc1ccc2c(c1)CCc1cc(OC)ccc1C2=Cc1ccc(OCCN2CCCCC2)cc1` [Example 333]: the pKi at human MR and at glucocorticoid receptor was more than 6.30 throughout.

With `Oc1cccc(/C=C2/c3ccccc3CCc3cc(C(F)F)ccc32)c1` [Example 334], the negative logarithm of the Ki (pKi) on human MR and on glucocorticoid receptor was more than 6.30 throughout.

With `Oc1cccc(/C=C2\c3ccccc3CCc3cc(C(F)F)ccc32)c1` [Example 335], the pKi at human MR and at glucocorticoid receptor was more than 6.30 each time.

For `N#Cc1ccc(C=C2c3ccccc3CCc3cc(F)ccc32)cc1F` [Example 336], the negative-log Ki (pKi) at human MR was more than 6.30; at glucocorticoid receptor, more than 5.00.

Turning to `CS(=O)(=O)Nc1ccc2c(c1)CCc1ccccc1/C2=C\c1cccc(O)c1` [Example 338], the pKi on human MR was more than 6.30; on glucocorticoid receptor it was more than 6.00.

For `CS(=O)(=O)Nc1cccc(/C=C2\c3ccccc3CCc3cc(NS(C)(=O)=O)ccc32)c1` [Example 339], the pKi on human MR and on glucocorticoid receptor was more than 6.30 each time.

As for `N#Cc1ccc2c(c1)CCc1ccccc1/C2=C/c1cccc(O)c1` [Example 340], the pKi at human MR and on glucocorticoid receptor was more than 6.30 in each case.

`N#Cc1ccc2c(c1)CCc1ccccc1/C2=C\c1cccc(O)c1` [Example 341]: the pKi at human MR and at glucocorticoid receptor was more than 6.30 in each case.

Turning to `CS(=O)(=O)Nc1cccc(/C=C2/c3ccccc3CCc3cc(C#N)ccc32)c1` [Example 342], the pKi at human MR and on glucocorticoid receptor was more than 6.30 in each case.

Regarding `CS(=O)(=O)Nc1cccc(/C=C2\c3ccccc3CCc3cc(-c4nn[nH]n4)ccc32)c1` [Example 343], the pKi was more than 6.00 on human MR and more than 6.30 on glucocorticoid receptor.

The values are drawn from patent publication US20060063759A1, “Tricyclic steroid hormone nuclear receptor modulators” (priority 2002, published 2006).
